Test results reported in article PMC8591608, “DNDI-6148: A Novel Benzoxaborole Preclinical Candidate for the Treatment of Visceral Leishmaniasis” (Journal of Medicinal Chemistry, 2021).
Like-named read-outs stand apart in the source and are kept apart here.

Legend:
[1] = Liver microsome stability, human; format: in vitro ADME; conditions: human liver microsomes
Method: (§1) Tests were performed by WuXi AppTec, China. Test compounds (at 1 μM) or positive controls (testosterone, propafenone, and diclofenac) were incubated at 37 °C with liver microsomes from Balb/c mouse, golden (Syrian) hamster, Sprague-Dawley rat, Beagle dog, or human in the presence of a NADPH regenerating system and phosphate buffer (100 mM, pH 7.4) at 0.4 or 0.8 mg/mL microsomal protein. The samples were removed at time intervals from 0 to 60, 90, or 120 min and immediately mixed with cold methanol supplemented or not with acid (3% formic acid) and centrifuged prior to analysis by LC-MS/MS using tolbutamide or propranolol as internal standards.

[2] = Liver microsome stability, hamster; format: in vitro ADME; conditions: golden (Syrian), hamster liver microsomes
Method: as §1

PMM cytotoxicity assay = format: cell-based; conditions: mouse, primary peritoneal mouse macrophages (PMM), geometric mean of at least two independent tests
Method: (§2) Primary peritoneal mouse macrophages (PMM) were collected two days after peritoneal stimulation with a 2% potato starch suspension. MRC5SV2 cells (diploid human embryonic lung fibroblasts) were cultured in minimal essential medium (MEM) containing Earle’s salts, supplemented with L-glutamine, NaHCO3, and 5% inactivated fetal calf serum. All cultures and assays were conducted at 37 °C under an atmosphere of 5% CO2.
(§3) Assays were performed in sterile 96-well microtiter plates, each well containing 10 μL of the compound dilution and 190 μL of MRC5SV2 or PMM inoculum (3 × 10^4 cells/mL). Cell growth was compared to untreated controls (100% growth) and assay-media controls (0% growth). After three-day incubation, cell viability was assessed fluorometrically by adding resazurin (50 μL/well of a stock solution in phosphate buffer (50 μg/mL)), incubating for 4 h and measuring fluorescence (λex 550 nm, λem 590 nm). The results were expressed as a percentage reduction in cell growth compared to untreated control wells. […] Tamoxifen was included as the reference drug.

L. infantum = assay: Intramacrophage L. infantum assay; format: cell-based; conditions: Leishmania infantum, geometric mean of at least two independent tests
Method: L. infantum (MHOM/MA/67/ITMAP263) and L. donovani (MHOM/ET/67/L82) were maintained in the golden (Syrian) hamster (Mesocricetus auratus). Ex vivo amastigotes were collected from the spleen of an infected donor hamster using two centrifugation purification steps: 230g for 10 min, keeping the supernatant layer, and 4100g for 30 min, keeping the pellet. The spleen parasite burden was assessed using the Stauber technique.[25] For in vitro assays, the inoculum was prepared in RPMI-1640 medium, supplemented with 200 mM L-glutamine, 16.5 mM NaHCO3, and 5% inactivated fetal calf serum. For the in vivo model, an infection inoculum containing 2 × 10^7 amastigotes/100 μL was prepared in phosphate-buffered saline (PBS).
The assay was performed in sterile 96-well microtiter plates, each well containing 10 μL of the compound dilution and 190 μL of the PMM/amastigote inoculum (3 × 10^4 cells/4.5 × 10^5 parasites per well). Parasite multiplication was compared to untreated infected controls (100% growth) and uninfected controls (0% growth). After five-day incubation, total parasite burdens were microscopically assessed after staining the cells with a 10% Giemsa solution. The results were expressed as a percentage reduction in parasite burden compared to untreated control wells. EC50 values were determined using an extended dose range (2-fold compound dilutions, 8-point concentration curve). Miltefosine was used as the reference drug.[26] For selected compounds, this assay format was also run using the L. donovani inoculum.

MRC5 cytotoxicity assay = format: cell-based; conditions: human, MRC5SV2 cells (human embryonic lung fibroblasts), geometric mean of at least two independent tests
Method: as §2, §3

[3] = pH 7.4, Table 4, read-out: HLM Clint
[4] = pH 7.4, Table 4, read-out: HamLM Clint
[5] = Table 4, read-out: intramacrophage L. infantum EC50
[6] = Table 5, read-out: intramacrophage L. infantum amastigote EC50
[7] = pH 7.4, Table 5, read-out: HLM Clint
[8] = pH 7.4, Table 5, read-out: HamLM Clint

SMILES	microsomal CLint at 1 μM [1, 3]	microsomal CLint at 2 h, 1 µM [2, 4]	EC50 (L. infantum; [5])	EC50 (L. infantum; [6])	CC50 at 3 days (PMM cytotoxicity assay; Table 4)	CC50 at 3 days (MRC5 cytotoxicity assay; Table 4)	CC50 at 72 h (MRC5 cytotoxicity assay; Table 4)	further results
O=C(Nc1ccc2c(c1)B(O)OC2)c1cn(C2CCOCC2)nc1C(F)(F)F [Compound 10, N-(1-Hydroxy-1,3-dihydrobenzo[c][1,2]oxaborol-6-yl)-1-(tetrahydro-2H-pyran-4-yl)-3-(trifluoromethyl)-1H-pyrazole-4-carboxamide]	< 11.9 µL/min/mg	109 µL/min/mg	3 µM		> 64 µM	> 64 µM		
O=C(Nc1ccc2c(c1)B(O)OC2)c1cn(C2CCC2)nc1C(F)(F)F [Compound 9, 1-Cyclobutyl-N-(1-hydroxy-1,3-dihydrobenzo[c][1,2]oxaborol-6-yl)-3-(trifluoromethyl)-1H-pyrazole-4-carboxamide]	< 11.9 µL/min/mg	337 µL/min/mg	0.59 µM				26 µM	CC50 at 72 h (PMM cytotoxicity assay; Table 4): 32 µM
Cc1nn(C2CCC2)cc1C(=O)Nc1ccc2c(c1)B(O)OC2 [Compound 8, Cyclobutyl-N-(1-hydroxy-1,3-dihydrobenzo[c][1,2]oxaborol-6-yl)-3-methyl-1H-pyrazole-4-carboxamide]	< 11.9 µL/min/mg	57 µL/min/mg	16 µM		> 64 µM	> 64 µM		
Cc1c(C(=O)Nc2ccc3c(c2)B(O)OC3)cnn1CCC(F)(F)F [Compound 15, N-(1-Hydroxy-1,3-dihydrobenzo[c][1,2]oxaborol-6-yl)-5-methyl-1-(3,3,3-trifluoropropyl)-1H-pyrazole-4-carboxamide]	< 11.9 µL/min/mg	48 µL/min/mg	14 µM		> 64 µM	> 64 µM		
Cc1nn(-c2ccccn2)cc1C(=O)Nc1ccc2c(c1)B(O)OC2 [Compound 11, N-(1-Hydroxy-1,3-dihydro-2,1-benzoxaborol-6-yl)-3-methyl-1-(pyridine-2-yl)-1H-pyrazole-4-carboxamide]	< 11.9 µL/min/mg		5.7 µM		> 64 µM	> 64 µM		
Cc1nn(CCC(F)(F)F)cc1C(=O)Nc1ccc2c(c1)B(O)OC2 [Compound 7, N-(1-Hydroxy-1,3-dihydrobenzo[c][1,2]oxaborol-6-yl)-3-methyl-1-(3,3,3-trifluoropropyl)-1H-pyrazole-4-carboxamide]			5.7 µM		> 64 µM	> 64 µM		
O=C(Nc1ccc2c(c1)B(O)OC2)c1cn(CCC(F)(F)F)nc1C(F)(F)F [Compound 6, N-(1-Hydroxy-1,3-dihydrobenzo[c][1,2]oxaborol-6-yl)-3-(trifluoromethyl)-1-(3,3,3-trifluoropropyl)-1H-pyrazole-4-carboxamide]	< 11.9 µL/min/mg	114 µL/min/mg	1.3 µM				49 µM	CC50 at 72 h (PMM cytotoxicity assay; Table 4): 38 µM
COc1cccc(-n2ncc(C(=O)Nc3ccc4c(c3)B(O)OC4)c2C)n1 [Compound 17, N-(1-Hydroxy-1,3-dihydrobenzo[c][1,2]oxaborol-6-yl)-1-(6-methoxypyridin-2-yl)-5-methyl-1H-pyrazole-4-carboxamide]	< 11.9 µL/min/mg	40 µL/min/mg	1.4 µM		> 64 µM		40 µM	
COc1ccccc1-n1cc(C(=O)Nc2ccc3c(c2)B(O)OC3)c(C)n1 [Compound 14, N-(1-Hydroxy-1,3-dihydro-2,1-benzoxaborol-6-yl)-1-(2-methoxyphenyl)-3-methyl-1H-pyrazole-4-carboxamide]			2.2 µM		> 64 µM		15.7 µM	

Continued, in another order:

microsomal CLint at 1 μM [1, 3]	microsomal CLint at 2 h, 1 µM [2, 4]	EC50 (L. infantum; [5])	EC50 (L. infantum; [6])	SMILES	CC50 at 3 days (PMM cytotoxicity assay; Table 4)	CC50 at 3 days (MRC5 cytotoxicity assay; Table 4)	CC50 at 72 h (MRC5 cytotoxicity assay; Table 4)	further results
			38 µM	Cc1c(C(=O)Nc2ccc3c(c2)B(O)OC3)nnn1-c1cccnc1 [Compound 27, N-(1-Hydroxy-1,3-dihydrobenzo[c][1,2]oxaborol-6-yl)-5-methyl-1-(pyridin-3-yl)-1H-1,2,3-triazole-4-carboxamide]				CC50 at 3 days (PMM cytotoxicity assay; Table 5): > 64 µM; CC50 at 3 days (MRC5 cytotoxicity assay; Table 5): > 64 µM
			0.6 µM	Cc1c(-c2ccccn2)csc1C(=O)Nc1ccc2c(c1)B(O)OC2 [Compound 30, N-(1-Hydroxy-1,3-dihydrobenzo[c][1,2]oxaborol-6-yl)-3-methyl-4-(pyridin-2-yl)thiophene-2-carboxamide]				microsomal CLint at 1 μM [1, 7]: < 11.9 µL/min/mg; microsomal CLint at 2 h, 1 µM [2, 8]: 88 µL/min/mg; CC50 at 72 h (PMM cytotoxicity assay; Table 5): 32 µM; CC50 at 72 h (MRC5 cytotoxicity assay; Table 5): 2.3 µM
	121 µL/min/mg	34 µM		Cn1nc(-c2ccccn2)cc1C(=O)Nc1ccc2c(c1)B(O)OC2 [Compound 20, N-(1-Hydroxy-1,3-dihydrobenzo[c][1,2]oxaborol-6-yl)-1-methyl-3-(pyridin-2-yl)-1H-pyrazole-5-carboxamide]	> 64 µM	> 64 µM		microsomal CLint at 2 h, 1 µM [1, 3]: 18 µL/min/mg
			37 µM	Cc1c(C(=O)Nc2ccc3c(c2)B(O)OC3)nnn1-c1ccccc1 [Compound 24, N-(1-Hydroxy-1,3-dihydrobenzo[c][1,2]oxaborol-6-yl)-5-methyl-1-phenyl-1H-1,2,3-triazole-4-carboxamide]				microsomal CLint at 1 μM [1, 7]: < 11.9 µL/min/mg; CC50 at 3 days (PMM cytotoxicity assay; Table 5): > 64 µM; CC50 at 3 days (MRC5 cytotoxicity assay; Table 5): > 64 µM
			6.4 µM	Cc1cccc(-n2nnc(C(=O)Nc3ccc4c(c3)B(O)OC4)c2C)n1 [Compound 26, N-(1-Hydroxy-1,3-dihydrobenzo[c][1,2]oxaborol-6-yl)-5-methyl-1-(6-methylpyridin-2-yl)-1H-1,2,3-triazole-4-carboxamide]				CC50 at 3 days (PMM cytotoxicity assay; Table 5): > 64 µM; CC50 at 3 days (MRC5 cytotoxicity assay; Table 5): > 64 µM
< 11.9 µL/min/mg	44 µL/min/mg	1.6 µM		Cc1cccc(-n2ncc(C(=O)Nc3ccc4c(c3)B(O)OC4)c2C)n1 [Compound 18, N-(1-Hydroxy-1,3-dihydrobenzo[c][1,2]oxaborol-6-yl)-5-methyl-1-(6-methylpyridin-2-yl)-1H-pyrazole-4-carboxamide]	> 64 µM		41 µM	
< 11.9 µL/min/mg	253 µL/min/mg	0.5 µM		O=C(Nc1ccc2c(c1)B(O)OC2)c1cc(-c2ccccn2)n[nH]1 [Compound 19, N-(1-Hydroxy-1,3-dihydrobenzo[c][1,2]oxaborol-6-yl)-3-(pyridin-2-yl)-1H-pyrazole-5-carboxamide]			4 µM	CC50 at 72 h (PMM cytotoxicity assay; Table 4): 32 µM
			1.7 µM	O=C(Nc1ccc2c(c1)B(O)OC2)c1cn(-c2ccccn2)nn1 [Compound 22, N-(1-Hydroxy-1,3-dihydrobenzo[c][1,2]oxaborol-6-yl)-1-(pyridin-2-yl)-1H-1,2,3-triazole-4-carboxamide]				microsomal CLint at 1 μM [1, 7]: < 11.9 µL/min/mg; microsomal CLint at 2 h, 1 µM [2, 8]: 18 µL/min/mg; CC50 at 3 days (PMM cytotoxicity assay; Table 5): > 64 µM; CC50 at 72 h (MRC5 cytotoxicity assay; Table 5): 44.8 µM
			0.8 µM	COc1cccc(-n2nnc(C(=O)Nc3ccc4c(c3)B(O)OC4)c2C)n1 [Compound 25, N-(1-Hydroxy-1,3-dihydrobenzo[c][1,2]oxaborol-6-yl)-1-(6-methoxypyridin-2-yl)-5-methyl-1H-1,2,3-triazole-4-carboxamide]				microsomal CLint at 2 h, 1 µM [1, 7]: 23 µL/min/mg; microsomal CLint at 2 h, 1 µM [2, 8]: 40 µL/min/mg; CC50 at 72 h (PMM cytotoxicity assay; Table 5): 32 µM; CC50 at 3 days (MRC5 cytotoxicity assay; Table 5): > 64 µM
	106 µL/min/mg	1.8 µM		Cn1nc(C(=O)Nc2ccc3c(c2)B(O)OC3)cc1-c1ccccn1 [Compound 21, N-(1-Hydroxy-1,3-dihydrobenzo[c][1,2]oxaborol-6-yl)-1-methyl-5-(pyridin-2-yl)-1H-pyrazole-3-carboxamide]	> 64 µM		54 µM	microsomal CLint at 2 h, 1 µM [1, 3]: 14 µL/min/mg
